Measurements taken from patent US20140148412A1, “NOVEL 17B-HETEROARYL-S[…] AS MODULATORS OF GABAA RECEPTORS” (THE REGENTS OF THE UNIVERSITY OF CLAIFORNIA, priority 2011, published 2014).

How the values were obtained:
[1] = biological target: GABAA receptors (rat cerebral cortex P2 homogenate); assay: [35S]TBPS binding assay; conditions: inhibition of [35S]TBPS binding
Method: The cerebral cortex from male Sprague-Dawley rats (weighing 160-200 g) was removed immediately after decapitation and dissected over ice. A P2 homogenate was prepared for binding assay as previously described (Gee, 1987a). The tissue was homogenized in 0.32 M sucrose (J. T. Baker Chemical Co., Phillipsburg, N.J.) with a Teflon-coated pestle, followed by centrifugation at 1,000×g for 10 min. The supernatant was collected and centrifuged at 9,000×g for 20 min. The resultant P2 pellet was resuspended in ice-cold 50 mM sodium potassium phosphate buffer (pH 7.4) containing 200 mM NaCl and used immediately in binding assays. A 2 nM concentration of [^35S]TBPS (86 Ci/mmol; New England Nuclear, Boston, Mass.) was incubated with 100 μL of tissue homogenate (10% w/v) in the presence or absence of 5 μM GABA (Sigma Chem. Co., St. Louis, Mo.) and 5 μL aliquots of test drug dissolved in dimethyl sulfoxide (Sigma Chem. Co.) (≦10 μL of solvent used in all assays). At the concentration (≦1%) used, dimethyl sulfoxide had no effect on specific [^35S]TBPS binding. […] Filter-bound radioactivity was quantified by liquid scintillation spectrophotometry. The data were evaluated by nonlinear regression (GraphPad, Inc., San Diego, Calif.) to obtain IC50 (concentration at which half-maximal inhibition of radioligand occurs) and Imax (maximum percent inhibition) values. […]

[2] = test system: pentylenetetrazole-induced seizures; assay: Anticonvulsant assay, protection from pentylenetetrazole-induced seizures; assay type: in vivo; conditions: oral dosing in 20% 2-hydroxypropyl-β-cyclodextrin; dose protecting half the animals from seizures
Method: The ability of compounds to protect against pentylenetetrazole-induced seizures was carried out as described by Hogenkamp, et al. J. Med. Chem. 2007, 50, 3369. The dose that protected half the animals from seizures was determined as the ED50.

mice [3] = assay: Mouse rotarod (RR); assay type: in vivo; conditions: dosed in 20% 2-hydroxypropyl-β-cyclodextrin
Method: Naïve mice were trained on a RR (Columbus Instruments, Columbus, Ohio) in 4 sessions (6-15 rpm) over 2 days to successfully complete the 2-min trial prior to final testing (6 rpm). On day 3, the mice were administered compound and tested over a period of 360 min at various intervals. The percentage of animals remaining on the RR throughout each 2-min trial was recorded. The results that coincided with the time of peak effect were analyzed by the method of Litchfield and Wilcoxon (Litchfield and Wilcoxon, J. Pharmacol. Exp. Ther., 1949, 96, 99) to determine the AD50 (ataxic half-maximal dose where half of the mice fail the RR assay). Compounds that have activity in the rotarod assay can indicate CNS depressive activity and sedative activity.

mice [4] = assay: Mouse elevated plus maze (EPM); assay type: in vivo; conditions: dosed in 20% 2-hydroxypropyl-β-cyclodextrin
Method: Mouse Elevated Plus Maze (EPM)
Mice were group housed and handled daily for 3 days prior to testing in the EPM (Coulbourn Instruments). Testing was conducted in a dimly lit room, with two 60 W bulbs pointed at the ceiling near the open arms (4 ft. above the maze). The maze was cleaned between each run. Automated counting of time spent in the open arms of the maze was achieved by using Med Associates (St. Albans, Vt.) MedPC-IV program. Data were analyzed with GraphPad Prism 4.0 for statistical significance by one-way ANOVA with Dunnett's multiple comparison post-hoc test. Compounds that increase the amount of time the animals spend in the open arms have activity as anxiolytics.

[5] = biological target: T1, human α1β1γ2 GABAA receptors (Homo sapiens, UniProt P14867+P18505); assay: Oocyte electrophysiology, modulation of EC10 GABA response; assay type: cell-based; conditions: oocytes expressing human α1β1γ2 GABAA receptors; % modulation above EC10 GABA control
T1 construct: expressed in transfected cells
Method: Preparation, micro-injection and maintenance of oocytes was as previously described (Ng et al., Proc. Natl. Acad. Sci., 2007, 104, 8059). Individual oocytes were injected with 0.005-50 ng of each subunit mRNA as follows (ratio of subunits in parentheses): GABAA receptor subunit combinations (α1,2, or 3, β1,2, or 3, γ2L or δ): (5:1:1). Stage IV-V oocytes were plucked from ovary membranes, defolliculized with collagenase Type IA (Worthington's) for 45 min and rinsed 10 times with Ringer's salt solution. cRNA was injected at 50 nL. Oocytes were tested 3-28 days after injection (n=3-7 per compound), in Ringer's salt solution by linear drug application method using electrodes with […] tip resistance. Changes in membrane current were passed through a pre-amp, then through a T200 patch amplifier (Axon Instruments), with a bandpass filter 2 kHz. pClamp software was used to monitor, record, and analyze data. All compounds were tested with a 30 second pretreatment prior to co-application with EC10 (concentration of GABA that evokes 10% of the maximum response) GABA for the control response. Responses in presence of test compound were calculated as % modulation above control. Concentration-response curves were fit to non-linear regression analysis on Prism 4.0 (GraphPad, San Diego, Calif.) for % maximal stimulation and EC50. […]

T1 sequence (P14867 28-456): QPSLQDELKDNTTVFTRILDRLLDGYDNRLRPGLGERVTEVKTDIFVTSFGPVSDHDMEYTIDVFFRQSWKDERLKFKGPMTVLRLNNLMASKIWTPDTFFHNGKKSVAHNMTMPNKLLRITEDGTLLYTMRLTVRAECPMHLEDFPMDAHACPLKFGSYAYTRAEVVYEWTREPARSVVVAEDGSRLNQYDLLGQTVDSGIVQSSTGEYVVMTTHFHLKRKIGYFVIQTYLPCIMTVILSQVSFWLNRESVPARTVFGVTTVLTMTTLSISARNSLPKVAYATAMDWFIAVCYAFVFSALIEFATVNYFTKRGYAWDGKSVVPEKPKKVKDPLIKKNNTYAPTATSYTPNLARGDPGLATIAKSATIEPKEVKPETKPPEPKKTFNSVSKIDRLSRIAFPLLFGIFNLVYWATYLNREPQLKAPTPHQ
T1 sequence (P18505 26-474): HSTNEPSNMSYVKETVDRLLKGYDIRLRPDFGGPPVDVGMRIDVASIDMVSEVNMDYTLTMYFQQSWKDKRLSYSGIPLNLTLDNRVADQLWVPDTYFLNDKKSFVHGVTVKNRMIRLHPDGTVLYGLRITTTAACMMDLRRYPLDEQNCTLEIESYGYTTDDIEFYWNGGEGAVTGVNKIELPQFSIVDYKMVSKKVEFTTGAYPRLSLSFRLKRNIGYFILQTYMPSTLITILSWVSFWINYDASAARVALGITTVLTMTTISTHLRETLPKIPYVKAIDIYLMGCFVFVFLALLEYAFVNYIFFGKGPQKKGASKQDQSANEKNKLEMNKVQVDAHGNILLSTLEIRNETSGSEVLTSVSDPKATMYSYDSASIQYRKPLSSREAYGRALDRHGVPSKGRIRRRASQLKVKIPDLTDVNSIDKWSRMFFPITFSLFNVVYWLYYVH
T1 sequence (P18507 40-475 partner): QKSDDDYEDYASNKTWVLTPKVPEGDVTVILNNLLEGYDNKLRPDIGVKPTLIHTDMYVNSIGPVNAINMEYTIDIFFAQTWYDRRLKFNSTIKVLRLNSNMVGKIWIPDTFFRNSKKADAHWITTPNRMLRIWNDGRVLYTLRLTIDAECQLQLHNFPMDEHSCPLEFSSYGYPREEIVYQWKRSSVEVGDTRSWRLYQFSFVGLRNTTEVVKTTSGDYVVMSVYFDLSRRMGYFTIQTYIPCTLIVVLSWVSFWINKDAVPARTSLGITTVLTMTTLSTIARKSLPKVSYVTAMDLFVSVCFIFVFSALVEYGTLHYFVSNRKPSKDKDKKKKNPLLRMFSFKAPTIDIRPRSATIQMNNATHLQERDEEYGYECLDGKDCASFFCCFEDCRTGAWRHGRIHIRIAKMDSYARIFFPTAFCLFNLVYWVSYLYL

C[C@@]1(O)CC[C@@]2(C)[C@@H](CC[C@@H]3[C@@H]2CC[C@]2(C)[C@@H](c4cc(CO)no4)CC[C@@H]32)C1 showed a melting point of 192 to 193 °C.

With C[C@@]1(O)CC[C@@]2(C)[C@@H](CC[C@@H]3[C@@H]2CC[C@]2(C)[C@@H](c4cn5ccccc5n4)CC[C@@H]32)C1 [2-[3α-Hydroxy-3β-methyl-5α-androstan-17β-yl]-imidazo[1,2-a]pyridine] the IC50 [1] was 1000 nM and the “Imax (maximum percent inhibition)” value [1] was 100%.

For C[C@@]1(O)CC[C@@]2(C)[C@@H](CC[C@@H]3[C@@H]2CC[C@]2(C)[C@@H](c4cc(CO)on4)CC[C@@H]32)C1 [3-[3α-hydroxy-3β-methyl-5α-androstan-17β-yl]-5-(hydroxymethyl)isoxazole], the melting point was 198.5 to 200 °C, the ED50 [2] was 4 mg/kg and the “oral AD50 (ataxic half-maximal dose)” value (mice [3]) was 43 mg/kg. The “minimum effective oral dose” value (mice [4]) was 1 mg/kg.

Compound C[C@@]1(O)CC[C@@]2(C)[C@@H](CC[C@@H]3[C@@H]2CC[C@]2(C)[C@@H](c4ccno4)CC[C@@H]32)C1 [5-[3α-hydroxy-3β-methyl-5α-androstan-17β-yl]-isoxazole] has a maximum modulation [5] of 400%.
